The values below come from US20060020029A1, “Pharmaceutical compositions from ethnobotanicals” (priority 2004, published 2006).

The data set is described as follows: Stability in DMSO / water (HPLC). The format is physicochemical. How it is done: Next, the stability of 3,5-DCQA was evaluated in various concentrations of DMSO. 5.2 mg 3,5-DCQA was dissolved in 0.208 ml DMSO (conc.=25 mg/ml), and then diluted with water as 40% DMSO in water solution, 20% DMSO in water solution, and 10% DMSO in water solution, respectively. All samples were subjected on HPLC in 0 Day, 1 Day, 2 Day and 4 Day, and the Area % of 3,5-DCQA was calculated.
In the presence of water, 3,5-DCQA was converted into 4,5-dicaffeoylquinic acid (4,5-DCQA), as observed using HPLC. HPLC analysis of 3,5-DCQA in DMSO and H2O (conc.=2.5 mg/ml) at 0 day, 2 Day and 4 Day indicated a progressive degradation of 3,5-DCQA. By the forth day in 10% DMSO in H2OP, over 11% of 3,5-DCQA was changed into 4,5-DCQA.

With `O=C(/C=C/c1ccc(O)c(O)c1)OC1CC(O)(C(=O)O)CC(OC(=O)/C=C/c2ccc(O)c(O)c2)C1O` (stereo not shown) [CJ4-16-4, 3,5-di-O-caffeoylquinic acid], the “3,5-DCQA changed into 4,5-DCQA” value (10% DMSO in H2O (2.5 mg/ml), fourth day) was “over 11%”. The “Area % of 3,5-DCQA (HPLC)” value was determined as 97.25 Area % (10% DMSO in H2O, 0 Day); 93.60 Area % (10% DMSO in H2O, 1 Day); 89.50 Area % (10% DMSO in H2O, 2 Day); 86.01 Area % (10% DMSO in H2O, 4 Day); 94.56 Area % (20% DMSO in H2O, 1 Day); 91.91 Area % (20% DMSO in H2O, 2 Day). Moreover, the “Area % of 3,5-DCQA (HPLC)” value by setting is: (20% DMSO in H2O, 4 Day) 89.08 Area %; (40% DMSO in H2O, 1 Day) 96.33 Area %; (40% DMSO in H2O, 2 Day) 94.72 Area %; (40% DMSO in H2O, 4 Day) 93.90 Area %; (100% DMSO (25 mg/ml), 0 Day) 97.28 Area %; (100% DMSO (25 mg/ml), 1 Day) 97.34 Area %. Also, the “Area % of 3,5-DCQA (HPLC)” value reads like this: (100% DMSO (25 mg/ml), 2 Day) 97.15 Area %; (100% DMSO (25 mg/ml), 4 Day) 97.09 Area %. The “degradation in 100% DMSO (in words)” value (100% DMSO, up to 4 Day) is “No statistically significant degradation”.
